Converted amounts (≈) assume the structure as drawn. Like-named read-outs stand apart in the source and are kept apart here.
Assays:
[1] = system: M. tuberculosis (strain H37Rv); test: MIC against M. tuberculosis strain H37Rv; type: cell-based; settings: Mycobacterium tuberculosis
[2] = system: mycolic acid synthesis in M. avium-intracellulare; test: Metabolic labeling, two-dimensional TLC of mycolic acids, M. avium-intracellulare; type: cell-based, Mycobacterium avium-intracellulare; settings: M. avium-intracellulare cultures treated with 12.5 μg/ml
[3] = system: mycolic acid synthesis in M. bovis BCG; type: cell-based, Mycobacterium bovis; settings: M. bovis BCG in the presence of III-50
[4] = system: M. bovis BCG cell wall; type: cell-based, Mycobacterium bovis; settings: dividing M. bovis BCG in the presence of III-50
[5] = system: M. bovis BCG; test: microbe, parasite or virus in culture; type: cell-based; settings: Mycobacterium tuberculosis variant bovis BCG
[6] = system: M. avium-intracellulare; test: MIC / growth inhibition against M. avium-intracellulare; type: cell-based, Mycobacterium avium-intracellulare
[7] = M. tuberculosis strain H37Rv, in vitro, read-out: MIC MTB
[8] = M. avium-intracellulare, routinely isoniazid resistant
[9] = Mycobacterium avium-intracellulare, M. avium-intracellulare, in vitro, read-out: MIC MAI

Row | Structure (SMILES) | MIC [1, 7] | also measured
1 | CCCCCCCCCCS(=O)(=O)C=CC(=O)OC (mixture of isomers) [JRG-I-31(mixture of cisand trans)] | 50 µg/mL | 
2 | CCCCCCCCCCS(=O)(=O)CCC(N)=O [DI-59] | > 25 µg/mL | 
3 | CCCCCCCCS(=O)(=O)CC(N)=O [HIII-50, n-Octanesulphonylacetamide] | 6.25 µg/mL (≈ 26.6 µM) | mycolic acids by phosphorimage of 2D TLC [2]: undetectable; mycolic acids by phosphorimage of 2D TLC [3]: significantly reduced; cell wall morphology in electron micrographs [4]: disruption of the cell wall; MIC [5]: 6.25 µg/mL (≈ 26.6 µM); MIC ([5]; read-out: MIC BCG): 6.25 µg/mL (≈ 26.6 µM); growth inhibition [6, 8]: inhibits; MIC [6, 9]: 25 µg/mL (≈ 106 µM); MIC ([1]; H37RV): 6.5 µg/mL (≈ 27.6 µM)
4 | CCCCCCCCS(=O)(=O)NCC(=O)O [HIII-56] | > 25 µg/mL | MIC ([5]; read-out: MIC BCG): > 25 µg/mL
5 | CCCCCCCC[S+]([O-])CC(=O)OCc1ccccc1 (stereo not shown) [HIII-206a] | 6.25 µg/mL (≈ 20.1 µM) | 
6 | CCCCCCCCS(=O)(=O)CC(=O)OCc1ccccc1 [HIII-206b] | 12.5 µg/mL (≈ 38.3 µM) | 
7 | CCCCCCCC[S+]([O-])CC(=O)OC (stereo not shown) [HIII-302] | > 25 µg/mL | 
8 | CCCCCCCCCCS(=O)(=O)/C=C/C(=O)OC [JRG-I-31] |  | melting point: 62 to 63 °C
9 | CCCCCCCCCCS(=O)(=O)/C=C/C(=O)O [JRG-I-43] | 50 µg/mL (≈ 181 µM) | 
10 | CCCCCCCCCCS(=O)(=O)/C=C\C(N)=O [JRG-I-89-1] | 25 µg/mL (≈ 90.8 µM) | 
11 | CCCCCCCCCCS(=O)(=O)/C=C/C(N)=O [JRG-I-89-2] | 12.5 µg/mL (≈ 45.4 µM) | 
12 | CCCCCCCCCCS(=O)(=O)C=CC(N)=O [JRG-I-89-3] | 6.25 µg/mL (≈ 22.7 µM) | 
13 | CCCCCCCCCCS(=O)(=O)CC(=O)NCCO [SI-45] | 12.5 µg/mL (≈ 40.7 µM) | MIC ([5]; read-out: MIC BCG): 25 µg/mL (≈ 81.3 µM)
14 | CCCCCCCCCC[S+]([O-])CC(N)=O (stereo not shown) [SI-46] | 6.25 µg/mL (≈ 25.3 µM) | 
15 | CCCCCCCCCCS(=O)(=O)CC(=O)NCC(O)CO (stereo not shown) [SI-48] | > 25 µg/mL | 
16 | CC(C)CCCC(C)CCS(=O)(=O)CC(N)=O (stereo not shown) [SI-52] | 6.25 µg/mL (≈ 23.7 µM) | 
17 | CCCCCCCCCCS(=O)(=O)CC(N)=O [SI-73] | 3.12 µg/mL (≈ 11.8 µM) | MIC [6, 9]: 12.5 µg/mL (≈ 47.5 µM); MIC ([6]; dose-response curves, M. avium-intracellular): 12.50 µg/mL (≈ 47.5 µM); MIC ([1]; H37RV): 3.12 µg/mL (≈ 11.8 µM)
18 | NNC(=O)c1ccncc1 [isoniazid, reference compound] |  | isoniazid resistance level [6, 8]: > 2.5 µg/mL
